# Assay results from US10323038B2, “Pyrazole compounds and methods of making and using same” (ABIDE THERAPEUTICS, INC., priority 2015, dated 2019).
# Assays:
# FAAH = FAAH (Mus musculus (Mouse), UniProt O08914); test: In vitro competitive activity-based protein profiling, FAAH (mouse); assay type: biochemical; settings: for inhibition at 1 µM: read-out: FAAH % inh. 1 μM (mouse)
# Procedure: (§1) In Vitro Competitive Activity-Based Protein Profiling.
# (§2) Proteomes (mouse brain membrane fraction or cell lysates for mouse assays; human prefrontal cortex or cell membrane fractions for human assays) (50 μL, 1.0 mg/mL total protein concentration) were preincubated with varying concentrations of inhibitors at 37° C. After 30 min, FP—Rh or HT-01 (1.0 μL, 50 μM in DMSO) was added and the mixture was incubated for another 30 min at 37° C. Reactions were quenched with SDS loading buffer (15 μL-4×) and run on SDS-PAGE. Following gel imaging, serine hydrolase activity was determined by measuring fluorescent intensity of gel bands corresponding to MAGL and FAAH using ImageJ 1.43u software.
# MAGL = MAGL (Mus musculus (Mouse), UniProt O35678); test: In vitro competitive activity-based protein profiling, MAGL (mouse); assay type: biochemical; settings: for inhibition at 1 µM: read-out: MAGL % inh. 1 μM (mouse)
# MAGL, sequence (O35678 whole entry): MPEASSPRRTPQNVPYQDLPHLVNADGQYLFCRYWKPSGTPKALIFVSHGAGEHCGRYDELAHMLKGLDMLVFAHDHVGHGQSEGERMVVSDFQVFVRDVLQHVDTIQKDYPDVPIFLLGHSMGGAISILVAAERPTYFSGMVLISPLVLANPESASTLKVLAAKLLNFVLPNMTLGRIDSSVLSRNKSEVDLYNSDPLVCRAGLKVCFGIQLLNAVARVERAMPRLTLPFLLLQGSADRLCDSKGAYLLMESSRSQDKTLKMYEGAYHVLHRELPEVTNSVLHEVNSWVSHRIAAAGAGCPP
# Procedure: as §1, §2
# FAAH, sequence (O08914 whole entry): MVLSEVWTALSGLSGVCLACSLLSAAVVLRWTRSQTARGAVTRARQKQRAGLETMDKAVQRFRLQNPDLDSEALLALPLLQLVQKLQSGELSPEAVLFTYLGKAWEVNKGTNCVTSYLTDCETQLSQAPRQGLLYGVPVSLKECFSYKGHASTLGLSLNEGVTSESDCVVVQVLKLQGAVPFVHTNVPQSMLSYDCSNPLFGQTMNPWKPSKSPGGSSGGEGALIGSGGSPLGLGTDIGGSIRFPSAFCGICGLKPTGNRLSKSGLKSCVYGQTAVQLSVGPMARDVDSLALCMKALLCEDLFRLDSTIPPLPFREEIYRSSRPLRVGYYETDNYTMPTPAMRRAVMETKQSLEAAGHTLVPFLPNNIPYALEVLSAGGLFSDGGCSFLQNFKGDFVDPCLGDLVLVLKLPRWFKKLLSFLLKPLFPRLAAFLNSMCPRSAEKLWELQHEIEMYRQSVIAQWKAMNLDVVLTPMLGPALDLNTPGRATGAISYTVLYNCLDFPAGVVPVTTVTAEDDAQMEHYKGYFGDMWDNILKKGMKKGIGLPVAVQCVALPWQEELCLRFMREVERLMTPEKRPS
Structure (SMILES),IC50 (FAAH) [µM],inhibition at 1 µM (FAAH) [%],IC50 (MAGL) [µM],inhibition at 1 µM (MAGL) [%]
"CC(=O)N(C)c1cnn(C(=O)N2CCN(Cc3ccc(N4CCOCC4)cc3C)CC2)c1 [Example 204, N-methyl-N-(1-(4-(2-methyl-4-morpholinobenzyl)piperazine-1-carbonyl)-1H-pyrazol-4-yl)acetamide]",0.1 to 1,≥ 75,0.1 to 1,≥ 75
"CC(=O)N(C)c1cnn(C(=O)N2C[C@H]3C[C@H](N(Cc4cccc(Cl)c4)C(C)=O)C[C@H]3C2)c1 [Example 173, N-(3-chlorobenzyl)-N-(trans-2-(4-(N-methylacetamido)-1H-pyrazole-1-carbonyl)octahydrocyclopenta[c]pyrrol-5-yl)acetamide]",,0 to 25,,≥ 75
"CC(=O)N(C)c1cnn(C(=O)N2CCC3(CCN(Cc4cc(Cl)ccc4Cl)C3)C2)c1 (racemic) [Example 175, N-(1-(7-(2,5-dichlorobenzyl)-2,7-diazaspiro[4.4]nonane-2-carbonyl)-1H-pyrazol-4-yl)-N-methylacetamide]",≤ 0.1,≥ 75,0.1 to 1,≥ 75
"CC(=O)N(C)c1cnn(C(=O)N2CC3CN(Cc4cc(Cl)cc(N5CC6COCC6C5)c4)CC3C2)c1 (stereo not shown) [Example 118, N-(1-(5-(3-chloro-5-(tetrahydro-1H-furo[3,4-c]pyrrol-5(3H)-yl)benzyl)octahydropyrrolo[3,4-c]pyrrole-2-carbonyl)-1H-pyrazol-4-yl)-N-methylacetamide]",≤ 0.1,≥ 75,≤ 0.1,≥ 75
"CC(=O)N(C)c1cnn(C(=O)N2CCC3(CCN(Cc4ccc(-c5ncccn5)cc4Cl)C3)C2)c1 (stereo not shown) [Example 268, N-(1-(7-(2-chloro-4-(pyrimidin-2-yl)benzyl)-2,7-diazaspiro[4.4]nonane-2-carbonyl)-1H-pyrazol-4-yl)-N-methylacetamide]",,≥ 75,,≥ 75
"CC(=O)N(C)c1cnn(C(=O)N2C[C@H]3C[C@@H](N(C)Cc4ccc(N5C6CCC5COC6)c(C(F)(F)F)c4)C[C@H]3C2)c1 [Example 150, N-(1-(cis-5-((4-(3-oxa-8-azabicyclo[3.2.1]octan-8-yl)-3-(trifluoromethyl)benzyl)(methyl)amino)octahydrocyclopenta[c]pyrrole-2-carbonyl)-1H-pyrazol-4-yl)-N-methylacetamide]",≤ 0.1,≥ 75,0.1 to 1,≥ 75
"CC(=O)N(C)c1cnn(C(=O)N2CCC3(CC2)CN(Cc2ccc(F)cc2)C3)c1 [Example 31, N-(1-(2-(4-fluorobenzyl)-2,7-diazaspiro[3.5]nonane-7-carbonyl)-1H-pyrazol-4-yl)-N-methylacetamide]",,25 to 50,,≥ 75
"CC(=O)N(C)c1cnn(C(=O)N2CCC3(CCN(Cc4ccc(-c5ccccc5)cc4C)C3)C2)c1 (stereo not shown) [Example 232, N-methyl-N-(1-(7-((3-methyl-[1,1′-biphenyl]-4-yl)methyl)-2,7-diazaspiro[4.4]nonane-2-carbonyl)-1H-pyrazol-4-yl)acetamide]",≤ 0.1,≥ 75,≤ 0.1,≥ 75
"CC(=O)N(C)c1cnn(C(=O)N2CCC3(CC2)CN(Cc2cccc(N4CCCC4)c2)C3)c1 [Example 30, N-methyl-N-(1-(2-(3-(pyrrolidin-1-yl)benzyl)-2,7-diazaspiro[3.5]nonane-7-carbonyl)-1H-pyrazol-4-yl)acetamide]",,≥ 75,,≥ 75
"CC(=O)N(C)c1cnn(C(=O)N2C[C@H]3C[C@H](N(C)Cc4cc(N5C6CCC5COC6)cc(C(F)(F)F)c4)C[C@H]3C2)c1 [Example 157, N-(1-(trans-5-((3-(3-oxa-8-azabicyclo[3.2.1]octan-8-yl)-5-(trifluoromethyl)benzyl)(methyl)amino)octahydrocyclopenta[c]pyrrole-2-carbonyl)-1H-pyrazol-4-yl)-N-methylacetamide]",,≥ 75,,≥ 75
"CC(=O)N(C)c1cnn(C(=O)N2CC3CN(Cc4cc(Cl)cc(N5CCC6(CCOCC6)C5)c4)CC3C2)c1 (stereo not shown) [Example 247, N-(1-(5-(3-chloro-5-(8-oxa-2-azaspiro[4.5]decan-2-yl)benzyl)octahydropyrrolo[3,4-c]pyrrole-2-carbonyl)-1H-pyrazol-4-yl)-N-methylacetamide]",,≥ 75,,≥ 75
"CC(=O)N(C)c1cnn(C(=O)N2CCC3(CCN(Cc4cc(Cl)ccc4C(F)(F)F)C3)C2)c1 (stereo not shown) [Example 70, N-(1-(7-(5-chloro-2-(trifluoromethyl)benzyl)-2,7-diazaspiro[4.4]nonane-2-carbonyl)-1H-pyrazol-4-yl)-N-methylacetamide]",≤ 0.1,≥ 75,≤ 0.1,≥ 75
"CS(=O)(=O)Nc1cnn(C(=O)N2CCN(Cc3cc(Cl)ccc3C(F)(F)F)CC2)c1 [Example 293, N-(1-(4-(5-chloro-2-(trifluoromethyl)benzyl)piperazine-1-carbonyl)-1H-pyrazol-4-yl)methanesulfonamide]",1 to 10,≥ 75,≤ 0.1,50 to 75
"CC(=O)N(C)c1cnn(C(=O)N2CCC3(CCN(Cc4cccc(Cl)c4C)C3)C2)c1 (stereo not shown) [Example 57, N-(1-(7-(3-chloro-2-methylbenzyl)-2,7-diazaspiro[4.4]nonane-2-carbonyl)-1H-pyrazol-4-yl)-N-methylacetamide]",≤ 0.1,≥ 75,0.1 to 1,≥ 75
"CC(=O)N(C)c1cnn(C(=O)N2C[C@H]3C[C@@H](N(C)Cc4cc(N5C6CCC5COC6)cc(C(F)(F)F)c4)C[C@H]3C2)c1 [Example 151, N-(1-(cis-5-((3-(3-oxa-8-azabicyclo[3.2.1]octan-8-yl)-5-(trifluoromethyl)benzyl)(methyl)amino)octahydrocyclopenta[c]pyrrole-2-carbonyl)-1H-pyrazol-4-yl)-N-methylacetamide]",0.1 to 1,≥ 75,0.1 to 1,≥ 75
"CS(=O)(=O)Nc1cnn(C(=O)N2CCN(Cc3ccc(-c4ncco4)cc3C(F)(F)F)CC2)c1 [Example 303, N-(1-(4-(4-(oxazol-2-yl)-2-(trifluoromethyl)benzy)piperazine-1-carbonyl)-1H-pyrazol-4-yl)methanesulfonamide]",1 to 10,≥ 75,≤ 0.1,50 to 75

# Further lines, results first:
IC50 (FAAH) [µM],inhibition at 1 µM (FAAH) [%],IC50 (MAGL) [µM],inhibition at 1 µM (MAGL) [%],Structure (SMILES)
0.1 to 1,≥ 75,0.1 to 1,≥ 75,"CC(=O)N(C)c1cnn(C(=O)N2CC3CN(Cc4cccc(Cl)c4)CC3C2)c1 (stereo not shown) [Example 10, N-(1-(5-(3-chlorobenzyl)octahydropyrrolo[3,4-c]pyrrole-2-carbonyl)-1H-pyrazol-4-yl)-N-methylacetamide]"
≤ 0.1,≥ 75,0.1 to 1,≥ 75,"CC(=O)N(C)c1cnn(C(=O)N2CCC3(CCN(Cc4cccc(Cl)c4Cl)C3)C2)c1 (stereo not shown) [Example 59, N-(1-(7-(2,3-dichlorobenzyl)-2,7-diazaspiro[4.4]nonane-2-carbonyl)-1H-pyrazol-4-yl)-N-methylacetamide]"
≤ 0.1,≥ 75,0.1 to 1,≥ 75,"CC(=O)N(C)c1cnn(C(=O)N2CC3CN(Cc4cc(C)cc(C)c4)CC3C2)c1 (stereo not shown) [Example 108, N-(1-(5-(3,5-dimethylbenzyl)octahydropyrrolo[3,4-c]pyrrole-2-carbonyl)-1H-pyrazol-4-yl)-N-methylacetamide]"
0.1 to 1,≥ 75,0.1 to 1,≥ 75,"CC(=O)N(C)c1cnn(C(=O)N2C[C@H]3C[C@H](NCc4cccc(Cl)c4)C[C@H]3C2)c1 [Example 137, N-(1-(trans-5-(3-chlorobenzylamino)octahydrocyclopenta[c]pyrrole-2-carbonyl)-1H-pyrazol-4-yl)-N-methylacetamide]"
≤ 0.1,≥ 75,≤ 0.1,≥ 75,"CC(=O)N(C)c1cnn(C(=O)N2CC3CN(Cc4cccc(C(F)(F)F)c4)CC3C2)c1 (stereo not shown) [Example 117, N-methyl-N-(1-(5-(3-(trifluoromethyl)benzyl)octahydropyrrolo[3,4-c]pyrrole-2-carbonyl)-1H-pyrazol-4-yl)acetamide]"
0.1 to 1,≥ 75,1 to 10,0 to 25,"CS(=O)(=O)Nc1cnn(C(=O)N2CC3CN(Cc4ccccc4Cl)CC3C2)c1 (stereo not shown) [Example 6, N-(1-(5-(2-chlorobenzyl)octahydropyrrolo[3,4-c]pyrrole-2-carbonyl)-1H-pyrazol-4-yl)methanesulfonamide]"
,≥ 75,,≥ 75,"CC(=O)N(C)c1cnn(C(=O)N2CC3CN(Cc4ccc(OC(C)C)cc4Cl)CC3C2)c1 (stereo not shown) [Example 253, N-(1-(5-(2-chloro-4-isopropoxybenzyl)octahydropyrrolo[3,4-c]pyrrole-2-carbonyl)-1H-pyrazol-4-yl)-N-methylacetamide]"
≤ 0.1,≥ 75,≤ 0.1,≥ 75,"CC(=O)N(C)c1cnn(C(=O)N2CC3CN(Cc4cccc(Cl)c4Cl)CC3C2)c1 (stereo not shown) [Example 107, N-(1-(5-(2,3-dichlorobenzyl)octahydropyrrolo[3,4-c]pyrrole-2-carbonyl)-1H-pyrazol-4-yl)-N-methylacetamide]"
